Measured values published in US7855199B2, “Heterocyclic compound and anti-malignant-tumor agent containing the same as active ingredient” (Zenyaku Kogyo Kabushiki Kaisha, priority 2004, dated 2010).

Experiments:
[1] = Test 1 (Pharmacokinetics Study), oral administration to mice, serum drug concentration by HPLC; assay type: in vivo; details: male, BDF1, mouse, oral 200 mg/kg, mice fasting for 16 hours, 1-24 hours after administration, read-out: AUC1h-24h
Protocol: Pharmacokinetics study was conducted, using six-week-old BDF1 male mice. Test compound was dissolved in dichloromethane together with hydroxypropyl cellulose (low-molecular weight)(HPC(L)) 2.5 times as much as the drug weight, dried under reduced pressure and was suspended in distilled water so as to have the drug concentration of 20 mg/mL. The test compound was forcedly orally administered to mice fasting for 16 hours with dose of 200 mg/kg. One, two, four, eight and 24 hours after the administration, blood was collected from orbit of two mice to obtain serum 100 μL of the obtained serum was added with internal standard solution and 1 mL of distilled water and then test compound and internal standard substance were extracted from the resulting mixture by diethyl ether. The organic layers were evaporated to dryness under reduced pressure and residues were dissolved in eluent to obtain HPLC measurement sample. The analysis was performed by HPLC with reversed-phase column and the eluent used was acetonitrile-phosphate buffer (pH 2.5). The drug concentration in the test serum was calculated by the calibration curve (Y=aX+b) obtained from standard substance. Area under the curve (AUC1h-24h) was calculated from the drug concentration in the serum, using WinNonlin (produced by the firm Pharsight, ver. 4.01).

Human colon cancer WiDr [2] = assay: in vitro antitumor test (50% growth inhibition concentration); assay type: cell-based
Protocol: This was also supported by the results of Table 3 below showing test results of in vitro antitumor test (comparative tests in 50% growth inhibition concentrations (GI50 μM) to Human colon cancer WiDr).

Human colon cancer WiDr [3] = assay: Test 2 (In Vivo Antitumor Test), subcutaneous WiDr tumor in nude mice; set-up: species or system mutant BALB/c nude mice; key to evaluation: Cases where T/C (%) of the last day was less than 50% and U-assay of Mann-Whitney revealed significant difference with one-sided risk rate of 1% were evaluated to be effective (+); ineffective (−); details: oral 100 mg/kg once a day, six times a week, for two weeks; for evaluation: T/C of the last day and Mann-Whitney U-assay; for T/C (%): relative tumor growth rate, last day
Protocol: Human colon cancer WiDr was grown as subcutaneous tumor in mutant BALB/c nude mice. 2-mm-cube tumor fragments were transplanted subcutaneously into left flank of the nude mice. When the tumor reached logarithmic growth phase, mice were divided randomly into test groups consisting five mice per group. The samples prepared by dissolving test compound in dichloromethane with a ratio of the test compound to HPC(L) being 1:2.5, dried under reduced pressure and suspended in distilled water. The samples were then orally administered at a rate of test compound 100 mg/kg, once a day and six times a week in total, for two weeks. The length and width of the tumor mass were measured on a daily basis to calculate tumor volume. The tumor volume at each measured day was divided by that at the start day of the sample administration to calculate relative tumor growth rate; and the relative tumor growth rate of the treated groups (T) and that of the control group (C) were used to calculate T/C(%).

COc1cccc2c1nc(C(F)F)n2-c1nc(N2CCOCC2)cc(N2CCO[C@@H](C)[C@H]2C)n1 (relative stereo) [compound 3, 2-(2-difluoromethyl-4-methoxybenzimidazol-1-yl)-4-(cis-2,3-dimethylmorpholino)-6-morpholinopyrimidine]
melting point: 176 to 178 °C | AUC(0-t) [1]: 87000 ng·h/mL

COc1cccc2c1nc(C(F)F)n2-c1nc(N2CCOCC2)cc(N2C[C@H](C)O[C@@H](C)C2)n1 (relative stereo) [compound 4, 2-(2-difluoromethyl-4-methoxybenzimidazol-1-yl)-4-(trans-2,6-dimethylmorpholino)-6-morpholinopyrimidine]
AUC(0-t) [1]: 138000 ng·h/mL

C[C@@H]1OCCN(c2cc(N3CCOCC3)nc(-n3c(C(F)F)nc4c(O)cccc43)n2)[C@@H]1C (relative stereo) [compound C, 2-(2-difluoromethyl-4-hydroxybenzimidazol-1-yl)-4-(cis-2,3-dimethylmorpholino)-6-morpholinopyrimidine, reference compound]
AUC(0-t) [1]: 17000 ng·h/mL

C[C@H]1CN(c2cc(N3CCOCC3)nc(-n3c(C(F)F)nc4c(O)cccc43)n2)C[C@H](C)O1 (relative stereo) [compound D, 2-(2-difluoromethyl-4-hydroxybenzimidazol-1-yl)-4-(trans-2,6-dimethylmorpholino)-6-morpholinopyrimidine, reference compound]
AUC(0-t) [1]: 68000 ng·h/mL

COc1cccc2c1nc(C(F)F)n2-c1nc(N2CCOCC2)cc(N2C[C@@H](C)O[C@@H](C)C2)n1 [compound 1, 2-(2-difluoromethyl-4-methoxybenzimidazol-1-yl)-4-(cis-2,6-dimethylmorpholino)-6-morpholinopyrimidine]
GI50 (Human colon cancer WiDr [2]): 450 nM | AUC(0-t) [1]: 332000 ng·h/mL | evaluation (Human colon cancer WiDr [3]): + (Cases where T/C (%) of the last day was less than 50% and U-assay of Mann-Whitney revealed significant difference with one-sided risk rate of 1% were evaluated to be effective (+)) | T/C (%) (Human colon cancer WiDr [3]): 35.7%

COc1cccc2c1nc(C(F)F)n2-c1nc(N2CCOCC2)cc(N2CCOC(C)(C)C2)n1 [compound 2, 2-(2-difluoromethyl-4-methoxybenzimidazol-1-yl)-4-(2,2-dimethylmorpholino)-6-morpholinopyrimidine]
GI50 (Human colon cancer WiDr [2]): 140 nM | melting point: 166 to 168 °C | AUC(0-t) [1]: 146000 ng·h/mL | evaluation (Human colon cancer WiDr [3]): + (Cases where T/C (%) of the last day was less than 50% and U-assay of Mann-Whitney revealed significant difference with one-sided risk rate of 1% were evaluated to be effective (+)) | T/C (%) (Human colon cancer WiDr [3]): 28.8%

COc1cccc2c1nc(C(F)F)n2-c1nc(N2CCOCC2)cc(N2CCOCC2)n1 [compound 5, 2-(2-difluoromethyl-4-methoxybenzimidazol-1-yl)-4,6-dimorpholinopyrimidine]
melting point: 203 to 205 °C

COc1cccc2c1nc(C(F)F)n2-c1nc(N2CCOCC2)nc(N2C[C@@H](C)O[C@@H](C)C2)n1 [compound 6, 2-(2-difluoromethyl-4-methoxybenzimidazol-1-yl)-4-(cis-2,6-dimethylmorpholino)-6-morpholino-1,3,5-triazine]
melting point: 235 to 237 °C

COc1cccc2c1nc(C(F)F)n2-c1nc(N2CCOCC2)nc(N2CC(C)(C)OCC2(C)C)n1 [compound 7, 2-(2-difluoromethyl-4-methoxybenzimidazol-1-yl)-4-(2,2,5,5-tetramethylmorpholino)-6-morpholino-1,3,5-triazine]
melting point: 209 to 211 °C

CCOc1cccc2c1nc(C(F)F)n2-c1nc(N2CCOCC2)cc(N2CCOCC2)n1 [compound 8, 2-(2-difluoromethyl-4-ethoxybenzimidazol-1-yl)-4,6-dimorpholinopyrimidine]
melting point: 188 to 190 °C

CCOc1cccc2c1nc(C(F)F)n2-c1nc(N2CCOCC2)cc(N2CCOC(C)(C)C2)n1 [compound 9, 2-(2-difluoromethyl-4-ethoxybenzimidazol-1-yl)-4-(2,2-dimethylmorpholino)-6-morpholinopyrimidine]
melting point: 114 to 116 °C | AUC(0-t) [1]: 88000 ng·h/mL

C[C@@H]1CN(c2cc(N3CCOCC3)nc(-n3c(C(F)F)nc4c(O)cccc43)n2)C[C@H](C)O1 [compound A, 2-(2-difluoromethyl-4-hydroxybenzimidazol-1-yl)-4-(cis-2,6-dimethylmorpholino)-6-morpholinopyrimidine]
GI50 (Human colon cancer WiDr [2]): 150 nM | AUC(0-t) [1]: 17000 ng·h/mL | evaluation (Human colon cancer WiDr [3]): − | T/C (%) (Human colon cancer WiDr [3]): 78.3%

CC1(C)CN(c2cc(N3CCOCC3)nc(-n3c(C(F)F)nc4c(O)cccc43)n2)CCO1 [compound B, 2-(2-difluoromethyl-4-hydroxybenzimidazol-1-yl)-4-(2,2-dimethylmorpholino)-6-morpholinopyrimidine, reference compound]
GI50 (Human colon cancer WiDr [2]): 90 nM | AUC(0-t) [1]: 5000 ng·h/mL | evaluation (Human colon cancer WiDr [3]): − | T/C (%) (Human colon cancer WiDr [3]): 88.4%
